Assay results taken from PubChem BioAssay (NCI).
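Values below derive from 48-hour exposures of cells grown in 96-well plates, with endpoints linearly interpolated between the two concentrations bracketing the appropriate inhibition level. The concentration for full growth arrest is given as TGI.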

Key:
Assay in all cases: DTP human tumour cell line panel, 48 h
[1] = test system: HCC-2998 colon
[2] = test system: CAKI-1 renal
[3] = test system: LOX IMVI melanoma
[4] = test system: 786-0 renal
[5] = test system: HT29 colon
[6] = test system: HL-60(TB) leukemia
[7] = test system: DMS 114 small cell lung
[8] = test system: SR leukemia
[9] = test system: RXF 393 renal
[10] = test system: SNB-75 CNS
[11] = test system: SK-OV-3 ovarian
[12] = test system: HOP-18 NSCLC
[13] = test system: SNB-19 CNS
[14] = test system: HOP-92 NSCLC
[15] = test system: SK-MEL-2 melanoma
[16] = test system: SW-620 colon
[17] = test system: HCT-116 colon
[18] = test system: TK-10 renal
[19] = test system: OVCAR-5 ovarian
[20] = test system: SF-295 CNS
[21] = test system: M14 melanoma
[22] = test system: M19-MEL melanoma
[23] = test system: KM20L2 colon
[24] = test system: DMS 273 small cell lung
[25] = test system: NCI-H23 lung
[26] = test system: SNB-78 CNS
[27] = test system: A498 renal
[28] = test system: DLD-1 colon
[29] = test system: HCT-15 colon
[30] = test system: SK-MEL-5 melanoma
[31] = test system: OVCAR-8 ovarian
[32] = test system: UACC-62 melanoma
[33] = test system: SN12C renal
[34] = test system: RPMI-8226 leukemia
[35] = test system: SF-539 CNS
[36] = test system: NCI-H460 lung
[37] = test system: NCI-H522 lung
[38] = test system: OVCAR-4 ovarian
[39] = test system: IGROV1 ovarian
[40] = test system: UO-31 renal
[41] = test system: OVCAR-3 ovarian
[42] = test system: UACC-257 melanoma
[43] = test system: ACHN renal
[44] = test system: SF-268 CNS
[45] = test system: MALME-3M melanoma
[46] = test system: KM12 colon
[47] = test system: NCI-H226 lung
[48] = test system: MOLT-4 leukemia
[49] = test system: HOP-62 NSCLC
[50] = test system: COLO 205 colon
[51] = test system: A549 NSCLC
[52] = test system: LXFL 529 NSCLC
[53] = test system: K-562 leukemia
[54] = test system: SK-MEL-28 melanoma
[55] = test system: CCRF-CEM leukemia
[56] = test system: U251 CNS
[57] = test system: EKVX NSCLC
[58] = test system: MCF7 breast
[59] = test system: HS 578T breast
[60] = test system: MDA-N
[61] = test system: DU-145 prostate
[62] = test system: PC-3 prostate
[63] = test system: MDA-MB-231 breast
[64] = test system: MDA-MB-435
[65] = test system: NCI/ADR-RES ovarian
[66] = test system: BT-549 breast

Question: With `COC(=O)NC(=O)c1cn(C2CCCCC2)c(=O)[nH]c1=O` as the compound, how does the TGI [1] read?
Answer: > 100 µM

Question: And the TGI [2]?
Answer: > 100 µM

Question: What about the TGI [3] of the same compound?
Answer: > 100 µM

Question: What about the TGI [4] of the same compound?
Answer: > 100 µM

Question: What about the TGI [5] of the same compound?
Answer: > 100 µM

Question: And the TGI [6]?
Answer: > 100 µM

Question: What about the TGI [7] of the same compound?
Answer: > 100 µM

Question: What about the TGI [8] of the same compound?
Answer: > 100 µM

Question: What about the TGI [9] of the same compound?
Answer: > 100 µM

Question: What about the TGI [10] of the same compound?
Answer: > 100 µM

Question: What about the TGI [11] of the same compound?
Answer: > 100 µM

Question: What about the TGI [12] of the same compound?
Answer: > 100 µM

Question: What about the TGI [13] of the same compound?
Answer: > 100 µM

Question: And the TGI [14]?
Answer: > 100 µM

Question: What about the TGI [15] of the same compound?
Answer: > 100 µM

Question: And the TGI [16]?
Answer: > 100 µM

Question: What about the TGI [17] of the same compound?
Answer: > 100 µM

Question: And the TGI [18]?
Answer: > 100 µM

Question: What about the TGI [19] of the same compound?
Answer: > 100 µM

Question: What about the TGI [20] of the same compound?
Answer: > 100 µM

Question: And the TGI [21]?
Answer: > 100 µM

Question: And the TGI [22]?
Answer: > 100 µM

Question: What about the TGI [23] of the same compound?
Answer: > 100 µM

Question: And the TGI [24]?
Answer: > 100 µM

Question: And the TGI [25]?
Answer: > 100 µM

Question: And the TGI [26]?
Answer: > 100 µM

Question: And the TGI [27]?
Answer: > 100 µM

Question: And the TGI [28]?
Answer: > 100 µM

Question: And the TGI [29]?
Answer: > 100 µM

Question: And the TGI [30]?
Answer: > 100 µM

Question: And the TGI [31]?
Answer: > 100 µM

Question: What about the TGI [32] of the same compound?
Answer: > 100 µM

Question: And the TGI [33]?
Answer: > 100 µM

Question: What about the TGI [34] of the same compound?
Answer: > 100 µM

Question: What about the TGI [35] of the same compound?
Answer: > 100 µM

Question: What about the TGI [36] of the same compound?
Answer: > 100 µM

Question: And the TGI [37]?
Answer: > 100 µM

Question: What about the TGI [38] of the same compound?
Answer: > 100 µM

Question: What about the TGI [39] of the same compound?
Answer: > 100 µM

Question: And the TGI [40]?
Answer: > 100 µM

Question: And the TGI [41]?
Answer: > 100 µM

Question: And the TGI [42]?
Answer: > 100 µM

Question: What about the TGI [43] of the same compound?
Answer: > 100 µM

Question: And the TGI [44]?
Answer: > 100 µM

Question: What about the TGI [45] of the same compound?
Answer: > 100 µM

Question: And the TGI [46]?
Answer: > 100 µM

Question: And the TGI [47]?
Answer: > 100 µM

Question: And the TGI [48]?
Answer: > 100 µM

Question: What about the TGI [49] of the same compound?
Answer: > 100 µM

Question: What about the TGI [50] of the same compound?
Answer: > 100 µM

Question: And the TGI [51]?
Answer: > 100 µM

Question: And the TGI [52]?
Answer: > 100 µM

Question: And the TGI [53]?
Answer: > 100 µM

Question: What about the TGI [54] of the same compound?
Answer: > 100 µM

Question: What about the TGI [55] of the same compound?
Answer: > 100 µM

Question: What about the TGI [56] of the same compound?
Answer: > 100 µM

Question: What does the source list for `COC(CC1(OC)OC(=O)C=C1N)OC` (stereo unspecified)?
Answer: TGI [1]: > 100 µM; TGI [3]: > 100 µM; TGI [4]: > 100 µM; TGI [5]: > 100 µM; TGI [6]: > 100 µM; TGI [7]: > 100 µM; TGI [8]: > 100 µM; TGI [10]: > 100 µM; TGI [11]: > 100 µM; TGI [12]: > 100 µM; TGI [13]: > 100 µM; TGI [14]: > 100 µM; TGI [15]: > 100 µM; TGI [16]: > 100 µM; TGI [17]: > 100 µM; TGI [18]: > 100 µM; TGI [19]: > 100 µM; TGI [20]: > 100 µM; TGI [21]: > 100 µM; TGI [22]: > 100 µM; TGI [24]: > 100 µM; TGI [25]: > 100 µM; TGI [26]: > 100 µM; TGI [27]: > 100 µM; TGI [28]: > 100 µM; TGI [29]: > 100 µM; TGI [30]: > 100 µM; TGI [31]: > 100 µM; TGI [32]: > 100 µM; TGI [33]: > 100 µM; TGI [34]: > 100 µM; TGI [35]: > 100 µM; TGI [36]: > 100 µM; TGI [37]: > 100 µM; TGI [38]: > 100 µM; TGI [39]: > 100 µM; TGI [40]: > 100 µM; TGI [41]: > 100 µM; TGI [42]: > 100 µM; TGI [43]: > 100 µM; TGI [44]: > 100 µM; TGI [45]: > 100 µM; TGI [46]: > 100 µM; TGI [47]: > 100 µM; TGI [48]: > 100 µM; TGI [57]: > 100 µM; TGI [49]: > 100 µM; TGI [50]: > 100 µM; TGI [51]: > 100 µM; TGI [52]: > 100 µM; TGI [53]: > 100 µM; TGI [54]: > 100 µM; TGI [55]: > 100 µM; TGI [56]: > 100 µM

Question: How did the TGI [1] turn out when `Cc1c2cc[n+](C)cc2c(C)c2c1oc1ccccc12` was run?
Answer: 12.3 µM

Question: What about the TGI [2] of the same compound?
Answer: 98.3 µM

Question: And the TGI [3]?
Answer: 19.7 µM

Question: And the TGI [4]?
Answer: 31.8 µM

Question: What about the TGI [5] of the same compound?
Answer: > 77.1 µM

Question: And the TGI [6]?
Answer: > 73.2 µM

Question: And the TGI [7]?
Answer: 7.86 µM

Question: And the TGI [8]?
Answer: 30.5 µM

Question: And the TGI [9]?
Answer: 70.3 µM

Question: And the TGI [10]?
Answer: 5.49 µM

Question: And the TGI [11]?
Answer: 57.8 µM

Question: What about the TGI [12] of the same compound?
Answer: > 63.7 µM

Question: And the TGI [13]?
Answer: 4.27 µM

Question: And the TGI [58]?
Answer: 70.5 µM

Question: And the TGI [14]?
Answer: 32.7 µM

Question: And the TGI [15]?
Answer: 15.8 µM

Question: And the TGI [16]?
Answer: 51.4 µM

Question: And the TGI [17]?
Answer: 24.5 µM

Question: What about the TGI [18] of the same compound?
Answer: 98.8 µM

Question: What about the TGI [19] of the same compound?
Answer: 64 µM

Question: And the TGI [20]?
Answer: 12.2 µM

Question: And the TGI [21]?
Answer: 31.5 µM

Question: What about the TGI [22] of the same compound?
Answer: 8.99 µM

Question: What about the TGI [23] of the same compound?
Answer: > 64.1 µM

Question: What about the TGI [24] of the same compound?
Answer: 16.7 µM

Question: What about the TGI [25] of the same compound?
Answer: 11.2 µM

Question: And the TGI [26]?
Answer: 29.6 µM

Question: And the TGI [27]?
Answer: > 69 µM

Question: And the TGI [28]?
Answer: > 59.5 µM

Question: And the TGI [29]?
Answer: > 100 µM

Question: What about the TGI [59] of the same compound?
Answer: 4.8 µM

Question: What about the TGI [60] of the same compound?
Answer: 23.8 µM

Question: And the TGI [30]?
Answer: 14.1 µM

Question: And the TGI [31]?
Answer: 29.8 µM

Question: And the TGI [32]?
Answer: 16.5 µM

Question: And the TGI [61]?
Answer: 64.7 µM

Question: What about the TGI [62] of the same compound?
Answer: 37.8 µM

Question: And the TGI [33]?
Answer: 4.57 µM

Question: And the TGI [34]?
Answer: 30.1 µM

Question: What about the TGI [35] of the same compound?
Answer: 13 µM

Question: And the TGI [36]?
Answer: 16.7 µM

Question: And the TGI [37]?
Answer: 8.17 µM

Question: And the TGI [38]?
Answer: 21.8 µM

Question: And the TGI [39]?
Answer: 52.6 µM

Question: What about the TGI [63] of the same compound?
Answer: 35.2 µM

Question: What about the TGI [40] of the same compound?
Answer: > 100 µM

Question: And the TGI [41]?
Answer: 16.7 µM

Question: What about the TGI [42] of the same compound?
Answer: 17.9 µM

Question: And the TGI [64]?
Answer: 21.5 µM

Question: And the TGI [43]?
Answer: > 100 µM

Question: What about the TGI [44] of the same compound?
Answer: 2.71 µM

Question: And the TGI [45]?
Answer: 3.99 µM

Question: What about the TGI [65] of the same compound?
Answer: > 100 µM

Question: What about the TGI [46] of the same compound?
Answer: 11.6 µM

Question: What about the TGI [47] of the same compound?
Answer: 10.1 µM

Question: What about the TGI [48] of the same compound?
Answer: 28.7 µM

Question: What about the TGI [57] of the same compound?
Answer: > 42.3 µM

Question: And the TGI [49]?
Answer: 11.2 µM

Question: What about the TGI [50] of the same compound?
Answer: 14.8 µM

Question: What about the TGI [51] of the same compound?
Answer: 36.5 µM

Question: And the TGI [52]?
Answer: 15.8 µM

Question: And the TGI [53]?
Answer: 34.9 µM

Question: What about the TGI [54] of the same compound?
Answer: 21.8 µM

Question: And the TGI [55]?
Answer: 45.9 µM

Question: And the TGI [66]?
Answer: 4.39 µM

Question: What about the TGI [56] of the same compound?
Answer: 3.37 µM
